Data as given in US9975888B2, “Aryl linked imidazole and triazole derivatives and methods of use thereof for improving the pharmacokinetics of a drug” (MERCK SHARP & DOHME CORP., priority 2013, dated 2018).

Columns and labels:
Format in all cases: biochemical
CYP2D6 = target: T1, CYP2D6 (Homo sapiens, UniProt P10635); assay: Cocktail assay for CYPs, dextromethorphan O-demethylation (CYP2D6), human liver microsomes; conditions: 5 μM dextromethorphan, 0.1 mg/mL human liver microsomes, 10 min at 37° C.; read-out: CYP IC50 (nM) 2D6
T1 construct: 0.1 mg/mL protein human liver microsomes (BD Gentest); tissue BD Gentest; host or cells: human liver microsomes
T1 sequence (P10635 whole entry): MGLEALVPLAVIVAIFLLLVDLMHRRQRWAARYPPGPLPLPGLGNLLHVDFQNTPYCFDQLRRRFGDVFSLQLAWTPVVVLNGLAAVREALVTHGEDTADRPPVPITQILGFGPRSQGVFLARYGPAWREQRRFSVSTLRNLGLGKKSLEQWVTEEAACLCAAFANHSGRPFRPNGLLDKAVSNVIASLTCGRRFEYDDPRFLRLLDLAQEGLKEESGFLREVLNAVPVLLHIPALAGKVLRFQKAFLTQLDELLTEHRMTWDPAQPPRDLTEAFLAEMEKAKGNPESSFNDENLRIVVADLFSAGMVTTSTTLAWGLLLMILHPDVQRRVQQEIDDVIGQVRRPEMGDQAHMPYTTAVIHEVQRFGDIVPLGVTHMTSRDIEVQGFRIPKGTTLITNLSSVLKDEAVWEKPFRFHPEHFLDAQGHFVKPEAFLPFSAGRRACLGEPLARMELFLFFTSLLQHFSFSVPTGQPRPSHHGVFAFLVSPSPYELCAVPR
In short: (§1)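 Pooled human liver microsomes (0.1 mg/mL) with a probe cocktail of 10 μM phenacetin, 5 μM dextromethorphan and 2 μM midazolam plus NADPH, pH 7.4, 10 min at 37° C. Each metabolite was quantified by LC/MS/MS against a tolbutamide internal standard. IC50 came from % inhibition at 6 concentrations (e.g. 0.0032–10 μM) by non-linear regression.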

CYP3A4 [1] = target: T2, CYP3A4 (Homo sapiens, UniProt P08684); assay: IC50 vs CYP3A by inhibition of lopinavir metabolism in human liver microsomes; parameters: 0.01 mg/mL protein human liver microsomes (BD Gentest); tissue BD Gentest; host or cells: human liver microsomes; conditions: 1.5 μM lopinavir, 0.01 mg/mL human liver microsomes, 8 min at 37° C.; read-out: CYP IC50 (nM) 3A4 (LPV)
In short: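 Human liver microsomes (0.01 mg/mL) with 1.5 μM lopinavir, 1 mM NADPH, 3.3 mM MgCl2 in 100 mM potassium phosphate pH 7.4, 8 min at 37 °C, six compound concentrations. Summed M2/M3/M4 hydroxy metabolites quantified by LC/MS/MS against tolbutamide; % inhibition normalised between no-inhibitor and 5 μM ketoconazole controls, IC50 by non-linear regression.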
Target sequence in this assay (P08684 2-503): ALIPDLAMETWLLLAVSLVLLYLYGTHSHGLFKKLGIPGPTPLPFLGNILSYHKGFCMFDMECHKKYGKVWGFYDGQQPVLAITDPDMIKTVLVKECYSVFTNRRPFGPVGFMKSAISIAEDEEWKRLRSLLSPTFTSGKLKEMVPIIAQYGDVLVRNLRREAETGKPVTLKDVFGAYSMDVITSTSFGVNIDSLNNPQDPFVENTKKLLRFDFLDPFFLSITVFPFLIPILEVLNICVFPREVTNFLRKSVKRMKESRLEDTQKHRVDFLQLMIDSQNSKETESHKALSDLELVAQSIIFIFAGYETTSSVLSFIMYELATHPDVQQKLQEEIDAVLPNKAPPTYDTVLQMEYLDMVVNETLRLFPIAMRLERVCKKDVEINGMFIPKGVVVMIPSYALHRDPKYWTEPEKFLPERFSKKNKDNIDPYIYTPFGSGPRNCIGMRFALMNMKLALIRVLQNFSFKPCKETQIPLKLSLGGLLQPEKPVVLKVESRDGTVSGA

CYP2C9 = target: T3, CYP2C9 (Homo sapiens, UniProt P11712); assay: Cocktail assay for CYPs, diclofenac 4′-hydroxylation (CYP2C9), human liver microsomes; conditions: 5 μM diclofenac, 0.1 mg/mL human liver microsomes, 10 min at 37° C.; read-out: CYP IC50 (nM) 2C9
T3 construct: 0.1 mg/mL protein human liver microsomes (BD Gentest); tissue BD Gentest; host or cells: human liver microsomes
T3 sequence (P11712 whole entry): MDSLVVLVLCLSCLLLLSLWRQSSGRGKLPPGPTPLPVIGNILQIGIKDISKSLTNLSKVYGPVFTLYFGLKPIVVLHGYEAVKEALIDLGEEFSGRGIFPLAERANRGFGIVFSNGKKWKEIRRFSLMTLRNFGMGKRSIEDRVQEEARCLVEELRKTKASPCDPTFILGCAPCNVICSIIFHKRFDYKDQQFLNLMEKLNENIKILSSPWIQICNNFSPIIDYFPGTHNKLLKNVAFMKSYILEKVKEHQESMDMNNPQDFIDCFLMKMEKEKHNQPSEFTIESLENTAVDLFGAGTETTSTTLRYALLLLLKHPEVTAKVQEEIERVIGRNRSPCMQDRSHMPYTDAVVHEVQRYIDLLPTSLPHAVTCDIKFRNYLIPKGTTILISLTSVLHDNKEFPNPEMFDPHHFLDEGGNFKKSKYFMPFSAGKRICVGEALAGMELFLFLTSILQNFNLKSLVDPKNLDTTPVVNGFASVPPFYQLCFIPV
In short: (§2)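 Pooled human liver microsomes (0.1 mg/mL) with probe cocktail incl. 5 μM diclofenac (CYP2C9) and 30 μM mephenytoin (CYP2C19), 1 mM NADPH, pH 7.4 phosphate buffer, 10 min at 37° C. Metabolites quantified by LC/MS/MS against internal standard; % inhibition versus no-inhibitor control, IC50 by non-linear regression.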

CYP3A4 [2] = target: T2, CYP3A4; assay: Cocktail assay for CYPs, midazolam 1′-hydroxylation (CYP3A4), human liver microsomes; parameters: 0.1 mg/mL protein human liver microsomes (BD Gentest); tissue BD Gentest; host or cells: human liver microsomes; conditions: 2 μM midazolam, 0.1 mg/mL human liver microsomes, 10 min at 37° C.; read-out: CYP IC50 (nM) 3A4 (MDZ)
In short: as §1
Target sequence in this assay (P08684 whole entry): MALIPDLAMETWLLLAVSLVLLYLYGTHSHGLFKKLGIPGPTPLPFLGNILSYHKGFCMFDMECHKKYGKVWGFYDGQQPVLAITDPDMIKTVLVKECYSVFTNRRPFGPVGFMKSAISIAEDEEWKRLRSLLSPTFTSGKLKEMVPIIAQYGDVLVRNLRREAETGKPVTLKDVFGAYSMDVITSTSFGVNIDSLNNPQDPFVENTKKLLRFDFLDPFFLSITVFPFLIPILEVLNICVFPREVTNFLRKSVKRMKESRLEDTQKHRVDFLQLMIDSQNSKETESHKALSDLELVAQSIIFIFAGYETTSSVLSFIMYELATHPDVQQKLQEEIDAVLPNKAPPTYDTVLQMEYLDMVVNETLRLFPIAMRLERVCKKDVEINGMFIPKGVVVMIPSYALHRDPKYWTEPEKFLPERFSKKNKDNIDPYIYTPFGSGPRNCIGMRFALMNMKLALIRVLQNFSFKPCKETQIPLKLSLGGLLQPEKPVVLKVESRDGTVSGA

CYP1A2 = target: T4, CYP1A2 (Homo sapiens, UniProt P05177); assay: Cocktail assay for CYPs, phenacetin O-deethylation (CYP1A2), human liver microsomes; conditions: 10 μM phenacetin, 0.1 mg/mL human liver microsomes, 10 min at 37° C.; read-out: CYP IC50 (nM) 1A2
T4 construct: 0.1 mg/mL protein human liver microsomes (BD Gentest); tissue BD Gentest; host or cells: human liver microsomes
T4 sequence (P05177 1-516): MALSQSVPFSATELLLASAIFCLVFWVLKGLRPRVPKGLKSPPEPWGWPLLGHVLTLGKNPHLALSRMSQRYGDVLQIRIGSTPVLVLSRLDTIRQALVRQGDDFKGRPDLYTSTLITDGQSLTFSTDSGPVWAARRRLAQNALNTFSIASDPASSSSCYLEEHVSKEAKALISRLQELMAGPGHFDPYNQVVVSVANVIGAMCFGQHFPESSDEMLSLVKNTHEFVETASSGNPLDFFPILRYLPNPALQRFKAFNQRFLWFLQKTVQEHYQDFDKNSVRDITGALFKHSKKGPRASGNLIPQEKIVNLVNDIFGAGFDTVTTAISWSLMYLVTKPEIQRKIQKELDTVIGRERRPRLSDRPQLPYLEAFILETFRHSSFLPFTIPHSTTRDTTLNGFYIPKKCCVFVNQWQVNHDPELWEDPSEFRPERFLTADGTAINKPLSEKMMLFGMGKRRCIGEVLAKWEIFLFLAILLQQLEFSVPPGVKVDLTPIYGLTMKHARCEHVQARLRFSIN
In short: as §1

CYP2C19 = target: T5, CYP2C19 (Homo sapiens, UniProt P33261); assay: Cocktail assay for CYPs, mephenytoin 4′-hydroxylation (CYP2C19), human liver microsomes; conditions: 30 μM mephenytoin, 0.1 mg/mL human liver microsomes, 10 min at 37° C.; read-out: CYP IC50 (nM) 2C19
T5 construct: 0.1 mg/mL protein human liver microsomes (BD Gentest); tissue BD Gentest; host or cells: human liver microsomes
T5 sequence (P33261 whole entry): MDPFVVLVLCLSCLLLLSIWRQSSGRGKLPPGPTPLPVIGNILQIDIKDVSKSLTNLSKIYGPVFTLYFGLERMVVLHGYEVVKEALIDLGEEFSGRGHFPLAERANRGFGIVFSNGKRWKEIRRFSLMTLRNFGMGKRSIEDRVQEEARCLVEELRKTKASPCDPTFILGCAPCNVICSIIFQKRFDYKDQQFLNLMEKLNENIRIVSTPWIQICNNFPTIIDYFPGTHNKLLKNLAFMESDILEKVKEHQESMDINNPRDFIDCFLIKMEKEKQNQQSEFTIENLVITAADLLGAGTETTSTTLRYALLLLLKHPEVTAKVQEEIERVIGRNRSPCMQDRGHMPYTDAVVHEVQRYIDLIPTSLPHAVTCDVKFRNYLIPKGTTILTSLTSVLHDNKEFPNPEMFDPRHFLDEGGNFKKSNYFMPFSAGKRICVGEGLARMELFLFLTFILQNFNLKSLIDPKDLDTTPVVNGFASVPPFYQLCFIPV
In short: as §2

| IC50 (CYP2D6) [nM] | IC50 (CYP3A4 [1]) [nM] | IC50 (CYP2C9) [nM] | IC50 (CYP3A4 [2]) [nM] | IC50 (CYP1A2) [nM] | IC50 (CYP2C19) [nM] | Compound |
| --- | --- | --- | --- | --- | --- | --- |
| > 10000 | 35.2 | > 10000 | 36.3 | > 10000 | 3270 | O=C(c1ccc(N2CCOCC2)nc1)N1CCCC1c1ccccc1-c1cncn1CCc1ccc(F)cc1 (single isomer, unassigned) [Compound 43a, (R or S)-(2-(2-(1-(4-fluorophenethyl)-1H-imidazol-5-yl)phenyl)pyrrolidin-1-yl) (6-morpholino-pyridin-3-yl) methanone] |
| 6860 | 5.5 | 1770 | 6.7 | 3350 | 2300 | CC(C)(C)OC(=O)N1CCCC1c1ccccc1-c1cncn1CCc1ccc(F)cc1 (stereo not drawn) [Compound 38, tert-butyl 2-(2-(1-(4-fluorophenethyl)-1H-imidazol-5-yl)phenyl) pyrrolidine-1-carboxylate] |

The next lines start with the compound.

| Compound | IC50 (CYP2D6) [nM] | IC50 (CYP3A4 [1]) [nM] | IC50 (CYP2C9) [nM] | IC50 (CYP3A4 [2]) [nM] | IC50 (CYP1A2) [nM] | IC50 (CYP2C19) [nM] |
| --- | --- | --- | --- | --- | --- | --- |
| O=S(=O)(c1ccc2c(c1)OCO2)N1CCCC1c1ccccc1-c1cncn1CCc1ccc(F)cc1 (stereo not drawn) [Compound 26, 5-(2-(1-(benzo[d][1,3]dioxol-5-ylsulfonyl)pyrrolidin-2-yl)phenyl)-1-(4-fluorophenethyl)-1H-imidazole] | 1650 | 1 | 1160 | 3.8 | 5020 | 1360 |
| O=S(=O)(c1cnc(N2CCN3C[C@H](O)C[C@H]3C2)s1)N1CCc2c(cccc2-c2cncn2CCc2ccc(F)cc2)C1 [Compound 64, (7R,8aS)-2-(5-((5-(1-(4-fluorophenethyl)-1H-imidazol-5-yl)-3,4-dihydroisoquinolin-2(1H)-yl)sulfonyl)thiazol-2-yl)octahydro-pyrrolo[1,2-a] pyrazin-7-ol] | 3130 | 1.6 | 3550 | 4.7 | > 10000 | 4230 |
| O=S(=O)(NCCc1ccccc1-c1cncn1CCc1ccc(F)cc1)c1cccnc1 [Compound 14, N-(2-(1-(4-fluorophenethyl)-1H-imidazol-5-yl)phenethyl)pyridine-3-sulfonamide] | 1100 | 54 | 7410 | 137 | > 10000 | > 10000 |
